ChEMBL document CHEMBL5223092, “Antibacterial activities of plant-derived xanthones” (RSC Med Chem, 2022)
Values after ≈ are worked out from the molar mass of the structure shown.

Tests used:
[1] = system: Staphylococcus aureus; test: Antibacterial activity against Staphylococcus aureus TISTR 1466 by Mueller-Hinton broth based two-fold serial dilution method; format: functional
[2] = system: Staphylococcus aureus; test: Antibacterial activity against methicillin resistant Staphylococcus aureus SK1 by Mueller-Hinton broth based two-fold serial dilution method; format: functional
[3] = system: Bacillus subtilis; test: Antibacterial activity against Bacillus subtilis TISTR 008 by Mueller-Hinton broth based two-fold serial dilution method; format: functional
[4] = system: Micrococcus luteus; test: Antibacterial activity against Micrococcus luteus TISTR 884 by Mueller-Hinton broth based two-fold serial dilution method; format: functional
[5] = system: Staphylococcus epidermidis; test: Antibacterial activity against Staphylococcus epidermis ATCC 12228 by Mueller-Hinton broth based two-fold serial dilution method; format: functional
[6] = system: Bacillus cereus; test: Antibacterial activity against Bacillus cereus TISTR 688 by Mueller-Hinton broth based two-fold serial dilution method; format: functional
[7] = system: Salmonella typhimurium; test: Antibacterial activity against Salmonella typhimurium TISTR 292 by Mueller-Hinton broth based two-fold serial dilution method; format: functional, Salmonella enterica subsp. enterica serovar Typhimurium; conditions: Salmonella enterica
[8] = system: Staphylococcus aureus; test: Antibacterial activity against methicillin resistant Staphylococcus aureus by liquid dilution method; format: functional
[9] = system: Staphylococcus aureus; test: Antibacterial activity against Staphylococcus aureus NIHJ 209p; format: functional
[10] = system: Escherichia coli; test: Antibacterial activity against Escherichia coli NIHJ K 12; format: functional
[11] = system: Vibrio vulnificus; test: Antibacterial activity against Vibrio vulnificus MCCC E1758; format: functional
[12] = system: Vibrio rotiferianus; test: Antibacterial activity against Vibrio rotiferianus MCCC E385; format: functional
[13] = system: Vibrio campbellii; test: Antibacterial activity against Vibrio campbellii MCCC E333; format: functional
[14] = system: Bacillus subtilis; test: Antibacterial activity against Bacillus subtilis PCI 219 incubated for 20 hrs by Mueller-Hinton broth based agar based dilution method; format: functional
[15] = system: Staphylococcus aureus; test: Antibacterial activity against methicillin resistant Staphylococcus aureus incubated for 20 hrs by Mueller-Hinton broth based agar based dilution method; format: functional
[16] = system: Micrococcus luteus; test: Antibacterial activity against Micrococcus luteus ATCC 9341 incubated for 20 hrs by Mueller-Hinton broth based agar based dilution method; format: functional
[17] = system: Micrococcus luteus; test: Antibacterial activity against Micrococcus luteus TISTR 1466 incubated for 16 to 18 hrs by Mueller-Hinton broth based two-fold serial dilution method; format: functional; conditions: time 16-18 hrs
[18] = system: Bacillus cereus; test: Antibacterial activity against Bacillus cereus TISTR 688 incubated for 16 to 18 hrs by Mueller-Hinton broth based two-fold serial dilution method; format: functional; conditions: time 16-18 hrs
[19] = system: Escherichia coli; test: Antibacterial activity against Escherichia coli TISTR 780 incubated for 16 to 18 hrs by Mueller-Hinton broth based two-fold serial dilution method; format: functional; conditions: time 16-18 hrs
[20] = system: Salmonella typhimurium; test: Antibacterial activity against Salmonella typhimurium TISTR 292 incubated for 16 to 18 hrs by Mueller-Hinton broth based two-fold serial dilution method; format: functional, Salmonella enterica subsp. enterica serovar Typhimurium; conditions: Salmonella enterica, time 16-18 hrs
[21] = system: Pseudomonas aeruginosa; test: Antibacterial activity against Pseudomonas aeruginosa TISTR 781 incubated for 16 to 18 hrs by Mueller-Hinton broth based two-fold serial dilution method; format: functional; conditions: time 16-18 hrs
[22] = system: Staphylococcus epidermidis; test: Antibacterial activity against Staphylococcus epidermidis ATCC 12228 incubated for 16 to 18 hrs by Mueller-Hinton broth based two-fold serial dilution method
[23] = system: Micrococcus luteus; test: Antibacterial activity against Micrococcus luteus; format: functional
[24] = system: Listeria monocytogenes; test: Antibacterial activity against Listeria monocytogenes DMST 17303 by Mueller-Hinton broth based two-fold serial dilution method; format: functional
[25] = system: Staphylococcus aureus; test: Antibacterial activity against Staphylococcus aureus TISTR 517 by Mueller-Hinton broth based two-fold serial dilution method; format: functional
[26] = system: Staphylococcus epidermidis; test: Antibacterial activity against Staphylococcus epidermidis DMST 15505 by Mueller-Hinton broth based two-fold serial dilution method; format: functional
[27] = system: Streptococcus pyogenes; test: Antibacterial activity against Streptococcus pyogenes DMST 17020 by Mueller-Hinton broth based two-fold serial dilution method; format: functional
[28] = system: Escherichia coli; test: Antibacterial activity against Escherichia coli ATCC 25922 by Mueller-Hinton broth based two-fold serial dilution method; format: functional
[29] = system: Staphylococcus aureus; test: Antibacterial activity against methicillin resistant Staphylococcus aureus SK1 incubated for 16 to 18 hrs by agar microdilution method; format: functional; conditions: time 16-18 hrs
[30] = system: Bacillus cereus; test: Antibacterial activity against Bacillus cereus; format: functional
[31] = system: Bacillus subtilis; test: Antibacterial activity against Bacillus subtilis; format: functional
[32] = system: Staphylococcus aureus; test: Antibacterial activity against methicillin resistant Staphylococcus aureus; format: functional
[33] = system: Bacillus subtilis; test: Antibacterial activity against Bacillus subtilis incubated for 8 to 12 hrs by Alamar blue reagent based microdilution broth method; format: functional; conditions: time 8-12 hrs
[34] = system: Staphylococcus aureus; test: Antibacterial activity against Staphylococcus aureus TISTR 517 incubated for 8 to 12 hrs by Alamar blue reagent based microdilution broth method; format: functional; conditions: time 8-12 hrs
[35] = system: Pseudomonas aeruginosa; test: Antibacterial activity against Pseudomonas aeruginosa incubated for 8 to 12 hrs by Alamar blue reagent based microdilution broth method; format: functional; conditions: time 8-12 hrs
[36] = system: Enterococcus faecalis; test: Antibacterial activity against Streptococcus faecalis incubated for 8 to 12 hrs by Alamar blue reagent based microdilution broth method; format: functional; conditions: time 8-12 hrs
[37] = system: Salmonella typhi; test: Antibacterial activity against Salmonella typhi incubated for 8 to 12 hrs by Alamar blue reagent based microdilution broth method; format: functional, Salmonella enterica subsp. enterica serovar Typhi; conditions: Salmonella enterica; time 8-12 hrs
[38] = Lipophilicity, logP of the compound; format: physicochemical; conditions: octanol/water
[39] = system: Staphylococcus aureus; test: Antibacterial activity against Staphylococcus aureus; format: functional
[40] = system: Enterococcus faecalis; test: Antibacterial activity against Enterococcus faecalis JCM 7783 incubated for 20 hrs by Mueller-Hinton broth based agar based dilution method; format: functional
[41] = system: Enterococcus faecalis; test: Antibacterial activity against Enterococcus faecalis JU 1856 incubated for 20 hrs by Mueller-Hinton broth based agar based dilution method; format: functional
[42] = system: Enterococcus faecalis; test: Antibacterial activity against Enterococcus faecalis JU 1782 incubated for 20 hrs by Mueller-Hinton broth based agar based dilution method; format: functional
[43] = system: Staphylococcus aureus; test: Antibacterial activity against methicillin sensitive Staphylococcus aureus JCM 2874 incubated for 20 hrs by Mueller-Hinton broth based agar based dilution method; format: functional
[44] = system: Vibrio harveyi; test: Antibacterial activity against Vibrio harveyi SZ-1 incubated for 24 hrs by oxford cup method; format: functional
[45] = system: Vibrio harveyi; test: Antibacterial activity against Vibrio harveyi 1.8690 incubated for 24 hrs by oxford cup method; format: functional
[46] = system: Staphylococcus epidermidis; test: Antibacterial activity against Staphylococcus epidermidis; format: functional
[47] = system: Escherichia coli; test: Antibacterial activity against Escherichia coli; format: functional
[48] = system: Pseudomonas aeruginosa; test: Antibacterial activity against Pseudomonas aeruginosa; format: functional

COc1c(O)cc2oc3cc(O)c(CC=C(C)C)c(O)c3c(=O)c2c1C/C=C(\C)CCC=C(C)C [COWANIN]
MIC [1]: 32 µg/mL (≈ 66.9 µM)
MIC [2]: 2 µg/mL (≈ 4.18 µM)
MIC [3]: 4 µg/mL (≈ 8.36 µM)
MIC [4]: 4 µg/mL (≈ 8.36 µM)
MIC [5]: 2 µg/mL (≈ 4.18 µM)
MIC [6]: 32 µg/mL (≈ 66.9 µM)
MIC [7]: 64 µg/mL (≈ 134 µM)

CC(C)=CCc1c(O)cc2oc3c(CC=C(C)C)c(O)c(O)c(CC=C(C)C)c3c(=O)c2c1O [GARCINONE E]
MIC [8]: 25 µg/mL (≈ 53.8 µM)
MIC [9]: 12.5 µg/mL (≈ 26.9 µM)
MIC [10]: 25 µg/mL (≈ 53.8 µM)
MIC [11]: 15.6 µg/mL (≈ 33.6 µM)
MIC [12]: 15.6 µg/mL (≈ 33.6 µM)
MIC [13]: 31.2 µg/mL (≈ 67.2 µM)

C=CC(C)(C)c1c(O)cc2oc3c(O)c4c(cc3c(=O)c2c1O)C=CC(C)(C)O4 [GERONTOXANTHONE B]
MIC [14]: > 25 µg/mL
MIC [15]: 25 µg/mL (≈ 63.4 µM)
MIC [16]: 12.5 µg/mL (≈ 31.7 µM)

CC1(C)CC(O)Oc2cc(O)c3c(=O)c4cccc(O)c4oc3c21 (stereo not given)
MIC [17]: 16 µg/mL (≈ 48.7 µM)
MIC [18]: 32 µg/mL (≈ 97.5 µM)
MIC [19]: 32 µg/mL (≈ 97.5 µM)
MIC [20]: 32 µg/mL (≈ 97.5 µM)
MIC [21]: 16 µg/mL (≈ 48.7 µM)
MIC [22]: 16 µg/mL (≈ 48.7 µM)

COc1c(O)cc2oc3cc4c(c(O)c3c(=O)c2c1CC=C(C)C)CC(C(C)(C)O)O4 (stereo not given)
MIC [23]: 12.5 µg/mL (≈ 29.3 µM)
MIC [24]: 0.78 µg/mL (≈ 1.83 µM)
MIC [25]: 12.5 µg/mL (≈ 29.3 µM)
MIC [26]: 25 µg/mL (≈ 58.6 µM)
MIC [27]: 3.13 µg/mL (≈ 7.34 µM)
MIC [28]: 25 µg/mL (≈ 58.6 µM)
MIC [29]: 4 µg/mL (≈ 9.38 µM)
MIC [30]: 8 µg/mL (≈ 18.8 µM)
MIC [31]: 2 µg/mL (≈ 4.69 µM)

C=CC(C)(C)c1c(O)c(CC=C(C)C)c(O)c2c(=O)c3ccc(O)c(O)c3oc12 [GERONTOXANTHONE I]
MIC [32]: 3.13 µg/mL (≈ 7.9 µM)
MIC [23]: 6.25 µg/mL (≈ 15.8 µM)
MIC [33]: 2.5 µg/mL (≈ 6.31 µM)
MIC [34]: 1.1 µg/mL (≈ 2.77 µM)
MIC [35]: > 50 µg/mL
MIC [36]: 3.13 µg/mL (≈ 7.9 µM)
MIC [37]: 1.1 µg/mL (≈ 2.77 µM)

COc1cc2c(=O)c3c(O)cccc3oc2c(O)c1OC
MIC [18]: 16 µg/mL (≈ 55.5 µM)
logP [38]: 2.09
MIC [22]: 16 µg/mL (≈ 55.5 µM)

CC(C)=CCc1c2c(c(O)c3c(=O)c4ccc(O)c(O)c4oc13)C=CC(C)(C)O2
MIC [33]: 1.1 µg/mL (≈ 2.79 µM)
MIC [34]: 1.1 µg/mL (≈ 2.79 µM)
MIC [35]: 9.3 µg/mL (≈ 23.6 µM)
MIC [36]: 1.1 µg/mL (≈ 2.79 µM)
MIC [37]: 1.1 µg/mL (≈ 2.79 µM)

C=CC(C)(C)c1cc(O)c2oc3c(O)cccc3c(=O)c2c1O
MIC [32]: 3.13 µg/mL (≈ 10 µM)
MIC [39]: 6.25 µg/mL (≈ 20 µM)

CC(C)=CCc1c(O)cc(O)c2c(=O)c3c(CC=C(C)C)c(O)ccc3oc12 [GERONTOXANTHONE H]
MIC [40]: 1.56 µg/mL (≈ 4.1 µM)
MIC [41]: 1.56 µg/mL (≈ 4.1 µM)
MIC [42]: 1.56 µg/mL (≈ 4.1 µM)
MIC [14]: 1.56 µg/mL (≈ 4.1 µM)
MIC [43]: 1.56 µg/mL (≈ 4.1 µM)
MIC [15]: 1.56 µg/mL (≈ 4.1 µM)
MIC [16]: 1.56 µg/mL (≈ 4.1 µM)

CC(C)=CCc1c(O)cc2oc3c(c(=O)c2c1O)C[C@H](CC=C(C)C)C(=O)[C@@]3(O)CC=C(C)C
MIC [1]: 2 µg/mL (≈ 4.29 µM)
MIC [2]: 2 µg/mL (≈ 4.29 µM)

COc1cc(O)cc2c1C(=O)c1c(O)cc(C)cc1C2=O [QUESTIN]
MIC [44]: < 50 µg/mL
MIC [45]: < 50 µg/mL

COc1c(O)cc2oc3cc(O)cc(O)c3c(=O)c2c1C/C=C(\C)CCC=C(C)C [RUBRAXANTHONE]
MIC [8]: 1.25 µg/mL (≈ 3.05 µM)
MIC [39]: 12 µg/mL (≈ 29.2 µM)
MIC [3]: 1 µg/mL (≈ 2.44 µM)
MIC [4]: 2 µg/mL (≈ 4.87 µM)
MIC [5]: 4 µg/mL (≈ 9.75 µM)

CC(C)=CCC/C(C)=C/Cc1c2c(c3oc4c(O)cccc4c(=O)c3c1O)C=CC(C)(C)O2
MIC [33]: 4.6 µg/mL (≈ 10.3 µM)
MIC [34]: 2.3 µg/mL (≈ 5.15 µM)
MIC [35]: > 50 µg/mL
MIC [36]: 18.7 µg/mL (≈ 41.9 µM)
MIC [37]: 4.6 µg/mL (≈ 10.3 µM)

COc1c(O)cc2oc3cc(O)c(CC=C(C)C)c(O)c3c(=O)c2c1CC=C(C)C [MANGOSTIN]
MIC [32]: 6.25 µg/mL (≈ 15.2 µM)
MIC [39]: 3.13 µg/mL (≈ 7.63 µM)
MIC [23]: 1 µg/mL (≈ 2.44 µM)
MIC [46]: 1.56 µg/mL (≈ 3.8 µM)
MIC [47]: 12.5 µg/mL (≈ 30.5 µM)
MIC [48]: 12.5 µg/mL (≈ 30.5 µM)

C=CC(C)(C)c1cc(O)c2oc3c(O)c(O)ccc3c(=O)c2c1O
MIC [8]: 25 µg/mL (≈ 76.1 µM)
MIC [9]: 12.5 µg/mL (≈ 38.1 µM)
MIC [10]: 25 µg/mL (≈ 76.1 µM)

COc1cc2c(=O)c3c(O)cc(O)cc3oc2cc1O [ALLOATHYRIOL]
MIC [20]: 4 µg/mL (≈ 14.6 µM)
logP [38]: 1.74
